Laboratory results taken from patent US6113896A, “Pharmaceutical compositions containing ecotin and homologs thereof” (priority 1994, dated 2000).

Tests used:
FXa = test: Ecotin·FXa dissociation rate constant (HLE trap); format: biochemical, human; conditions: calculated from (Ki)·(kon)
Procedure: Determination of FXa dissociation rate constant The dissociation rate constant of the ecotin.cndot.FXa complex was measured using HLE to trap the free ecotin released from the complex. FXa (10 μM) was incubated for 1 h in TNCT buffer in the presence and absence of ecotin (12.5 μM) and diluted 1000-fold into TNCT buffer with and without HLE (500 nM). Aliquots (180 μl ) were removed at various times and initial rates of free FXa were measured at 405 nm with 20 μl of 5 mM Spectrozyme fXa. The product curve (free FXa versus time) was fit to equation 6; the value for koff was determined by nonlinear regression analysis.
To measure the dissociation rate constant of ecotin from FXa, the complex was diluted 1000-fold into buffer containing a 50-fold excess of HLE to trap the free ecotin and prevent reassociation. In the absence of HLE, reassociation of ecotin with FXa was so rapid that free FXa was barely detectible (FIG. 4B). Progress of dissociation was monitored as the increase in hydrolysis rate of Spectrozyme fXa resulting from the increasing free FXa with time. Because HLE prevented reassociation the rate of dissociation of the E·I complex is given by equation (5): [formula] which upon integration gives equation (6): […]
where [E] is the free [FXa] at any time t, [E.cndot.I]0 is the concentration of the complex at time zero, and koff is the first order dissociation rate constant. The time dependent E·I complex dissociation curve fit to equation (6) by nonlinear regression analysis is shown in FIG. 4B; the dissociation rate constant for ecotin tested is shown above in Table I.

human FXa = test: Equilibrium inhibition constant with Factor Xa (tight-binding analysis); format: biochemical; conditions: compared with wild type
Procedure: Determination of Equilibrium Inhibition Constants Apparent Ki values (Ki *) for the inhibition of the enzymes tested by ecotin and mutants were measured as follows. All reactions were performed at 25° C. Stock solutions of trypsin were quantitated by active site burst titration with MUGB as previously described (Jameson, G. W. et al., Biochem. J. 131:107-117 [1973]) using a Fluoroskan II plate reader at excitation wavelength of 355 nm and emission wavelength of 460 nm. Data was collected on a Macintosh SE20 using either Delta Soft II Fl v3.31 software (BioMetallics). Active site titrated trypsin was then used to quantitate ecotin active sites using BAPA as the substrate; a stoichiometry of 1:1 was assumed (Chung, C. H. et al., supra). Factor Xa, Factor XIIa, plasma kallikrein, or HLE were then quantitated by active site titration using ecotin as a standard, again assuming 1:1 stoichiometry. In addition, the concentration of HLE was quantitated by methods previously described using a calibrated stock of α1 -proteinase inhibitor to titrate the HLE active sites (Beatty, K. et al., J. Biol. Chem. 255:3931-3934 [1980]); the same HLE active site concentration was determined using both ecotin and α1 -proteinase inhibitor. The substate for FXa was Spectrozyme fXa (0.5 mM); the substrate for FXIIa (0.5 mM) and plasma kallikrein was S2302 (0.5 mM); the substrate for HLE was MeOSuc-Ala-Ala-Pro-Val-pNA (0.4 mM). There was good agreement upon comparison of the protein concentrations determined by amino acid analysis, Bradford analysis (Bradford, M. M. Anal. Biochem. 72:248-254 (1976) or active site titrations for trypsin, ecotin, FXa, FXIIa, plasma kallikrein, and HLE.
Therefore, apparent equilibrium dissociation values (Ki *) were determined using methods derived for tight-binding inhibitors (Morrison, J. F. Biochim. Biophys. Acta 185:269-286 [1969]), (Bieth, J. in Proteinase Inhibitors (Fritz, H., Tschesche, H., Greene, L. J. and Truscheit, E., Ed.) pp 463-469, Springer-Verlag, New York [1974]). Data were fit by nonlinear regression analysis to equation 1 and values for Ki * were determined. [formula] where α is the fractional activity (steady-state inhibited rate divided by the uninhibited rate), [Eo ] is the total enzyme concentration, and [Io ] is the total ecotin concentration. Since the inhibitor and substrate compete for the same site, the true Ki value is related to Ki^* by the expression Ki =Ki */(1+[S]/Km), where Km is the Michaelis constant for the substrate, and [S] is the substrate concentration.
a. […] Following a 1 hour incubation at room temperature to reach equilibration of the enzyme.cndot.inhibitor complex, 20 μl of 5 mM Spectrozyme fXa was added, and the steady-state rate of product formation measured by monitoring the change in absorbance at 405 nm. The Km for Spectrozyme fXa with FXa under these conditions was determined to be 0.23 mM by linear regression analysis of Lineweaver-Burke plots.

HLE = conditions: relative to α1-proteinase inhibitor with P1 Met, literature; cited from earlier work

Substance	koff (values in parenthesis) (FXa) [s⁻¹]	inhibition of FXa, in words (human FXa)	decreased inhibition towards HLE (HLE)
M84A	0.00066		
M84D		significant inhibition	
M84E	0.00057	significant inhibition	
α1-Proteinase inhibitor (Pittsburgh): naturally occuring mutant of the serpin α1-proteinase inhibitor which has Arg in the P1 position instead of Met			10,000 fold
